Source: ChEMBL document CHEMBL1201862, “PubChem BioAssay data set” (2004)
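Following 48 hours of exposure in 96-well plates, responses at five concentrations were used to interpolate endpoints linearly. Abbreviation: GI50, concentration required for 50% inhibition of growth.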 The source made the active and inactive calls. Cut-off read from the data, not from the text of the source: active = GI50 up to about 1.1 µM and inactive = higher.

How the values were obtained:
Assay in all cases: NCI-60 cell line screen, 48 h
UACC-257 = tested on: UACC-257
PC-3 = tested on: PC-3
IGROV-1 = tested on: IGROV-1
HL-60 = tested on: HL-60
NCI/ADR-RES = tested on: NCI/ADR-RES
SNB-75 = tested on: SNB-75
MOLT-4 = tested on: MOLT-4
HOP-92 = tested on: HOP-92
MDA-MB-231 = tested on: MDA-MB-231
KM12 = tested on: KM12
RPMI-8226 = tested on: RPMI-8226
OVCAR-3 = tested on: OVCAR-3
K562 = tested on: K562
HCC 2998 = tested on: HCC 2998
MCF7 = tested on: MCF7
LOX IMVI = tested on: LOX IMVI
SW-620 = tested on: SW-620
TK-10 = tested on: TK-10

Row | SMILES | GI50 (UACC-257) | GI50 (PC-3) | GI50 (IGROV-1) | GI50 (HL-60) | GI50 (NCI/ADR-RES) | GI50 (SNB-75) | GI50 (MOLT-4) | GI50 (HOP-92) | GI50 (MDA-MB-231) | GI50 (KM12) | GI50 (RPMI-8226) | GI50 (OVCAR-3) | GI50 (K562) | GI50 (HCC 2998) | GI50 (MCF7) | GI50 (LOX IMVI) | GI50 (SW-620) | GI50 (TK-10)
1 | CC1(C)Oc2ccc3ccc(=O)oc3c2C(O)C1O (stereo not drawn) | 29.4 µM (inactive) | 31.6 µM (inactive) | 33.2 µM (inactive) | 33.3 µM (inactive) | 34 µM (inactive) | 38.8 µM (inactive) | 21.7 µM (inactive) | 57.8 µM (inactive) | 71.8 µM (inactive) | 31.9 µM (inactive) | 30.2 µM (inactive) | 37.2 µM (inactive) | 37.6 µM (inactive) | > 100 µM (inactive) | 33.9 µM (inactive) | 29.5 µM (inactive) | 61.1 µM (inactive) | 
2 | COC(=O)c1c2c(cc3c1CC1(Cc4cc5c(cc4C1)CCC5)C3)CCC2 | > 100 µM (inactive) | > 100 µM (inactive) | > 100 µM (inactive) | > 100 µM (inactive) | > 100 µM (inactive) | > 100 µM (inactive) | > 100 µM (inactive) | > 100 µM (inactive) | > 100 µM (inactive) |  | > 100 µM (inactive) | > 100 µM (inactive) | > 100 µM (inactive) | > 100 µM (inactive) | > 100 µM (inactive) | > 100 µM (inactive) | > 100 µM (inactive) | > 100 µM (inactive)
3 | CC(=O)OC(C)(C)/N=N/c1ccc(Br)cc1 | 5.45 µM (inactive) | 24.3 µM (inactive) | 18.7 µM (inactive) | 0.653 µM (active) | 14.4 µM (inactive) | > 53.5 µM (inactive) | 3.56 µM (inactive) | 23.7 µM (inactive) | > 76.2 µM (inactive) | 5.79 µM (inactive) | 0.942 µM (active) | 13.6 µM (inactive) | 0.0596 µM (active) | 16.6 µM (inactive) | 0.551 µM (active) | 3.09 µM (inactive) | 48.2 µM (inactive) | 23.7 µM (inactive)
4 | COc1cc2c3c([nH]c2c(OC)c1OC)CCN(Cc1ccccc1)C3 | 19.9 µM (inactive) | 55.1 µM (inactive) | 57.7 µM (inactive) | 21.4 µM (inactive) | 29.9 µM (inactive) | 42.1 µM (inactive) | 25.1 µM (inactive) | 6.27 µM (inactive) | 32.8 µM (inactive) | > 100 µM (inactive) | 18.5 µM (inactive) | 64.6 µM (inactive) | 20.2 µM (inactive) | 17.9 µM (inactive) | 18.1 µM (inactive) | 16.3 µM (inactive) | 1.95 µM (inactive) | 21.7 µM (inactive)
5 | N/C(=N\OC(=O)NC(Cl)=C(Cl)Cl)c1cc(C(F)(F)F)cc(C(F)(F)F)c1 | 16.1 µM (inactive) | 17.5 µM (inactive) | 25.8 µM (inactive) | 12.8 µM (inactive) | 19.5 µM (inactive) |  | 9.48 µM (inactive) | 14.8 µM (inactive) | 15.8 µM (inactive) | 15.8 µM (inactive) | 12.5 µM (inactive) | 14.8 µM (inactive) |  | 12.5 µM (inactive) | 25.1 µM (inactive) | 16.3 µM (inactive) | 18.9 µM (inactive) | 16.5 µM (inactive)
6 | CC(=O)c1c2c(cc3c1CC1(Cc4cc5c(cc4C1)CCCC5)C3)CCCC2 | 13 µM (inactive) | 51.4 µM (inactive) | 45 µM (inactive) | 7.85 µM (inactive) | > 100 µM (inactive) | < 0.01 µM (active) | 12.1 µM (inactive) | > 100 µM (inactive) | > 100 µM (inactive) | > 100 µM (inactive) | 11.8 µM (inactive) | 27.2 µM (inactive) | 9.66 µM (inactive) | > 100 µM (inactive) | 19.4 µM (inactive) | 55.1 µM (inactive) |  | > 100 µM (inactive)
7 | O=C1NC(=S)NC(=O)C1C(c1ccc(Cl)cc1)C1C(=O)NC(=S)NC1=O.c1ccncc1 | > 100 µM (inactive) | > 100 µM (inactive) | > 100 µM (inactive) | > 100 µM (inactive) | > 100 µM (inactive) |  | > 100 µM (inactive) | > 100 µM (inactive) | > 100 µM (inactive) | > 100 µM (inactive) | > 100 µM (inactive) | > 100 µM (inactive) | > 100 µM (inactive) |  | > 100 µM (inactive) | > 100 µM (inactive) | > 100 µM (inactive) | > 100 µM (inactive)
8 | O=C(O)C1C2C=CC(C2)C1c1ccccc1 (stereo not drawn) | > 100 µM (inactive) | > 100 µM (inactive) |  | > 100 µM (inactive) | > 100 µM (inactive) | > 100 µM (inactive) | > 100 µM (inactive) | > 100 µM (inactive) | > 100 µM (inactive) | > 100 µM (inactive) | > 100 µM (inactive) | > 100 µM (inactive) | > 100 µM (inactive) | > 100 µM (inactive) | > 100 µM (inactive) | > 100 µM (inactive) | > 100 µM (inactive) | > 100 µM (inactive)
9 | COC1(OC)N=C(N)C2(C#N)C(C)CC(=O)N(N(C)C)C12C#N (stereo not drawn) | > 100 µM (inactive) | > 100 µM (inactive) | > 100 µM (inactive) | > 100 µM (inactive) | > 100 µM (inactive) | 40.5 µM (inactive) | > 100 µM (inactive) | > 100 µM (inactive) | > 100 µM (inactive) | > 100 µM (inactive) | > 100 µM (inactive) |  | > 100 µM (inactive) | > 100 µM (inactive) | > 100 µM (inactive) | > 100 µM (inactive) | > 100 µM (inactive) | > 100 µM (inactive)
10 | COc1ccc2c(c1)C1Oc3ccccc3CC1CO2 (stereo not drawn) | 35.9 µM (inactive) | 46.1 µM (inactive) | > 100 µM (inactive) | 21.2 µM (inactive) | 42.1 µM (inactive) | 28.4 µM (inactive) | 21.5 µM (inactive) | 25.2 µM (inactive) | 16.8 µM (inactive) | 37.2 µM (inactive) | 25.6 µM (inactive) | 57.7 µM (inactive) | 52.2 µM (inactive) | 19.7 µM (inactive) | 78.2 µM (inactive) | 47.2 µM (inactive) | 63.1 µM (inactive) | 73.1 µM (inactive)
11 | CN(C)c1ccc(/C=c2/c3ccccc3n3nc4ccccc4c23)cc1 | 56 µM (inactive) | 8.04 µM (inactive) | 22.1 µM (inactive) | 21.2 µM (inactive) | 11.1 µM (inactive) | 2.49 µM (inactive) | 17 µM (inactive) | 12.8 µM (inactive) | 47 µM (inactive) | 30.7 µM (inactive) | 10.7 µM (inactive) | 28.2 µM (inactive) | 9.53 µM (inactive) |  | 13.8 µM (inactive) | 18.7 µM (inactive) | 12.8 µM (inactive) | > 100 µM (inactive)
12 | Cn1ccnc1Oc1ccc(Cl)cc1 | 9.75 µM (inactive) | 14.3 µM (inactive) |  | 0.631 µM (active) | 16.7 µM (inactive) | 14.7 µM (inactive) | 2.38 µM (inactive) | 11 µM (inactive) | 14.8 µM (inactive) |  | 0.49 µM (active) |  | 13.7 µM (inactive) | 4.57 µM (inactive) | 12 µM (inactive) | 13.2 µM (inactive) | 13 µM (inactive) | 18.7 µM (inactive)
13 | Nc1nc(O)nc2snnc12 | 24.7 µM (inactive) | > 100 µM (inactive) | > 100 µM (inactive) | 2.79 µM (inactive) | 32.6 µM (inactive) | 5.28 µM (inactive) | 7.6 µM (inactive) | 20.3 µM (inactive) | 7.13 µM (inactive) | > 100 µM (inactive) | 5.7 µM (inactive) | > 100 µM (inactive) | 7.26 µM (inactive) | > 65.6 µM (inactive) | > 100 µM (inactive) | 2.92 µM (inactive) | 5.4 µM (inactive) | > 22.4 µM (inactive)
14 | C=C1c2nc3ccccc3n2C=C(c2ccccc2)N1c1ccc(OC)cc1 | 31.8 µM (inactive) | 19.1 µM (inactive) | 11 µM (inactive) | 29.8 µM (inactive) | 17.7 µM (inactive) | 3.68 µM (inactive) | 18.9 µM (inactive) | 31.1 µM (inactive) | 40.2 µM (inactive) | 11.4 µM (inactive) | 12.4 µM (inactive) | 57.8 µM (inactive) | 45.4 µM (inactive) |  | 6.81 µM (inactive) | 50 µM (inactive) | 47.5 µM (inactive) | 12.5 µM (inactive)
15 | COc1cc2c(cc1OC)C(=O)/C(=C/c1ccc(Cl)cc1)CC2 | > 10 µM (inactive) | > 10 µM (inactive) | > 10 µM (inactive) | > 10 µM (inactive) | > 10 µM (inactive) |  | > 10 µM (inactive) | > 10 µM (inactive) | > 10 µM (inactive) | > 10 µM (inactive) | > 10 µM (inactive) | > 10 µM (inactive) | > 10 µM (inactive) | > 10 µM (inactive) | > 10 µM (inactive) | > 10 µM (inactive) | > 10 µM (inactive) | > 10 µM (inactive)
16 | CCN1/C(=C/c2ccc3ccccc3[n+]2CC)C=Cc2ccccc21 | 0.18 µM (active) | 0.445 µM (active) | 2.51 µM (inactive) | 1.09 µM (active) | 21.9 µM (inactive) | 0.35 µM (active) | 0.641 µM (active) | 1.44 µM (inactive) | 1.77 µM (inactive) | 0.149 µM (active) | 0.19 µM (active) | 0.269 µM (active) | 0.262 µM (active) | 0.482 µM (active) | 0.367 µM (active) | 0.561 µM (active) | 0.762 µM (active) | 2.81 µM (inactive)
